Test results from article PMC9822940, “Antiplasmodial activity, structure–activity relationship and studies on the action of novel benzimidazole derivatives” (Scientific Reports, 2023).
Values joined by “and” are separate entries in the source; they are usually repeats but may differ in a detail not shown here. Identical values can stand only once. Like-named read-outs stand apart in the source and are kept apart here. Blank lines part the entries; values can stand above or below the compound they belong to.

Columns and labels:
P. falciparum HB3 strain = assay: Antiplasmodial activity against P. falciparum HB3 strain in culture; format: cell-based, Plasmodium falciparum; settings: for SI (selectivity index): Vero CC50 versus HB3 IC50
Experimental: (§1) In vitro activity of BZ. All BZ derivatives were tested at 10 μM against the HB3 strain of Pf, and for those compounds with a percentage of growth inhibition (% GI) higher than 50%, the IC50 values were determined. In addition, their cytotoxicity on epithelial Vero cell cultures was evaluated to calculate their selectivity indexes (SI), Table 1. An index of 10 or above is expected for a lead compound.
(§2) The chloroquine-sensitive […] and chloroquine-resistance 7G8 strain […] of P. falciparum were used throughout. Infected erythrocytes were kept in culture using the protocol established by Haynes et al.[44], basically utilizing human O^+ erythrocytes kept in an RPMI medium supplemented with glutamine and 10% human serum incubated in an atmosphere of 90% N2, 5% O2 and 5% CO2.

Vero cells = assay: Cytotoxicity on epithelial Vero cell cultures; format: cell-based; settings: Vero cells
Experimental: as §1

[1] = Cytotoxicity on epithelial Vero cell cultures; format: cell-based; settings: African green monkey, epithelial Vero cells
Experimental: as §1

[2] = system: 7G8 P. falciparum parasites; assay: Antiplasmodial activity against chloroquine-resistant 7G8 P. falciparum; format: cell-based, Plasmodium falciparum; settings: for IC50: Plasmodium falciparum
Description: The mechanism used by Pf to prevent intoxication with free heme once hemoglobin is degraded is to form hemozoin crystals that capture heme. Mefloquine and other common antimalarials interfere with this pathway, resulting in the death of the parasite.
as §2

[3] = HB3 strain (chloroquine-sensitive), read-out: IC50
[4] = Plasmodium falciparum, HB3 strain (chloroquine-sensitive), read-out: IC50
[5] = Plasmodium falciparum, at 10 μM, HB3 strain, read-out: GI (growth inhibition percentage)

Compound: O=C(Nc1nc2cc(Cl)ccc2[nH]1)c1ccc2ccccc2n1 [BZ 20]
GI (growth inhibition percentage) (P. falciparum HB3 strain; at 10 μM, HB3 strain): 25.9%

IC50 (P. falciparum HB3 strain; [3]): 3.5 µM
Compound: CCCCc1ccc(C(=O)Nc2nc3cc(Cl)ccc3[nH]2)nc1 [BZ 17]
GI (growth inhibition percentage) (P. falciparum HB3 strain; at 10 μM, HB3 strain): 89.7%
CC50 (Vero cells): 3.4 µM

melting point: 214 °C
IC50 (P. falciparum HB3 strain; [4]): 2.3 µM
Compound: O=C(Nc1nc2cc(Cl)ccc2[nH]1)c1ccc(-c2ccccc2)cn1 [BZ 18, N-(5-Chloro-1H-benzimidazol-2-yl)-5-phenylpicolinamide]
inhibition at 10 µM (P. falciparum HB3 strain; [5]): 99.2%
SI (selectivity index) (P. falciparum HB3 strain): 0.3
CC50 [1]: 0.6 µM

Compound: CCN(CC)CCCC(C)Nc1ccnc2cc(Cl)ccc12 (centres unmarked) [Chloroquine, reference compound]
IC50 (P. falciparum HB3 strain; Plasmodium falciparum, HB3): 0.028 µM
inhibition at 10 µM (P. falciparum HB3 strain; Plasmodium falciparum, HB3, read-out: GI (growth inhibition percentage)): 100%
IC50 ([2]; 7G8, read-out: 7G8 Pf IC50): 0.23 µM

Compound: Cc1ccc2[nH]c(NC(=O)c3ccncc3)nc2c1 [BZ 3]
GI (growth inhibition percentage) (P. falciparum HB3 strain; at 10 μM, HB3 strain): inactive and 0.0%

Compound: O=C(Nc1nc2cc(Cl)ccc2[nH]1)c1nccc2ccccc12 [BZ 23]
GI (growth inhibition percentage) (P. falciparum HB3 strain; at 10 μM, HB3 strain): 53.7%

melting point: 173 °C
IC50 (P. falciparum HB3 strain; [4]): 2.5 µM
Compound: Cc1ccc2[nH]c(NC(=O)c3ncccc3C)nc2c1 [BZ 4, 3-Methyl-N-(5-methyl-1H-benzimidazol-2-yl)picolinamide]
inhibition at 10 µM (P. falciparum HB3 strain; [5]): 92.4%
SI (selectivity index) (P. falciparum HB3 strain): 2.8
CC50 [1]: 6.8 µM

melting point: 129 °C
IC50 (P. falciparum HB3 strain; [4]): 1.2 µM
Compound: CCCCc1ccc(C(=O)Nc2nc3cc(OC)ccc3[nH]2)nc1 [BZ 27, 5-Butyl-N-(5-methoxy-1H-benzimidazol-2-yl)picolinamide]
inhibition at 10 µM (P. falciparum HB3 strain; [5]): 100%
SI (selectivity index) (P. falciparum HB3 strain): 7.4
CC50 [1]: 8.5 µM

melting point: 281 °C
IC50 (P. falciparum HB3 strain; [4]): 2.4 µM
Compound: O=C(Nc1nc2cc(Cl)c(Cl)cc2[nH]1)c1ccccn1 [BZ 36, N-(5,6-Dichloro-1H-benzimidazol-2-yl)picolinamide]
inhibition at 10 µM (P. falciparum HB3 strain; [5]): 81.9%
SI (selectivity index) (P. falciparum HB3 strain): 5.0
CC50 [1]: 11.8 µM

Compound: Cc1ccc2[nH]c(NC(=O)c3ccnc4ccccc34)nc2c1 [BZ 10]
GI (growth inhibition percentage) (P. falciparum HB3 strain; at 10 μM, HB3 strain): 60.5%

Compound: Cc1cccc(C(=O)Nc2nc3cc(Cl)ccc3[nH]2)n1 [BZ 19]
GI (growth inhibition percentage) (P. falciparum HB3 strain; at 10 μM, HB3 strain): inactive and 28.0%

IC50 (P. falciparum HB3 strain; [3]): 3.4 µM
Compound: CCCCc1ccc(C(=O)Nc2nc3cc(C)c(C)cc3[nH]2)nc1 [BZ 34]
GI (growth inhibition percentage) (P. falciparum HB3 strain; at 10 μM, HB3 strain): 74.2%
CC50 (Vero cells): 3.2 µM

Compound: Cc1ccc2[nH]c(NC(=O)c3ccc(C#N)cn3)nc2c1 [BZ 8]
GI (growth inhibition percentage) (P. falciparum HB3 strain; at 10 μM, HB3 strain): inactive and 37.4%

Compound: Cc1ccc2[nH]c(NC(=O)c3cccnc3)nc2c1 [BZ 2]
GI (growth inhibition percentage) (P. falciparum HB3 strain; at 10 μM, HB3 strain): inactive and 0.0%

IC50 (P. falciparum HB3 strain; [3]): 8.5 µM
Compound: CCCCCCCCC(NC(=O)OC(C)(C)C)C(=O)Nc1ccc2[nH]c(NC(=O)c3ccccn3)nc2c1 (centres unmarked) [BZ 31]
CC50 (Vero cells): 26.8 µM

melting point: 262 °C
IC50 (P. falciparum HB3 strain; [4]): 2.3 µM
Compound: O=C(Nc1nc2cc(Cl)ccc2[nH]1)c1ccnc2ccccc12 [BZ 22, N-(5-Chloro-1H-benzimidazol-2-yl)quinoline-4-carboxamide]
inhibition at 10 µM (P. falciparum HB3 strain; [5]): 88.9%
SI (selectivity index) (P. falciparum HB3 strain): 6.9
CC50 [1]: 16.1 µM

IC50 (P. falciparum HB3 strain; [3]): 6.8 µM
Compound: CCCCCCCCC(N)C(=O)Nc1ccc2[nH]c(NC(=O)c3ccccn3)nc2c1 (centres unmarked) [BZ 32]
CC50 (Vero cells): 16.4 µM

melting point: 180 °C
IC50 (P. falciparum HB3 strain; [4]): 2.8 µM
Compound: Cc1cccnc1C(=O)Nc1nc2cc(Cl)ccc2[nH]1 [BZ 13, N-(5-Chloro-1H-benzimidazol-2-yl)-3-methylpicolinamide]
inhibition at 10 µM (P. falciparum HB3 strain; [5]): 87.3%
SI (selectivity index) (P. falciparum HB3 strain): 3.0
CC50 [1]: 8.6 µM

IC50 (P. falciparum HB3 strain; [3]): 4.4 µM
Compound: COc1ccc2[nH]c(NC(=O)c3ccc(-c4ccccc4)cn3)nc2c1 [BZ 28]
GI (growth inhibition percentage) (P. falciparum HB3 strain; at 10 μM, HB3 strain): 72.7%
CC50 (Vero cells): 14.6 µM

IC50 (P. falciparum HB3 strain; [3]): 5.1 µM
Compound: O=C(Nc1nc2cc([N+](=O)[O-])ccc2[nH]1)c1ccccn1 [BZ 29]
GI (growth inhibition percentage) (P. falciparum HB3 strain; at 10 μM, HB3 strain): 96.0%
CC50 (Vero cells): 13.9 µM

Compound: COc1ccc2[nH]c(NC(=O)c3ccccn3)nc2c1 [BZ 25]
GI (growth inhibition percentage) (P. falciparum HB3 strain; at 10 μM, HB3 strain): 50.9%

Compound: Cc1ccc2[nH]c(NC(=O)c3nccc4ccccc34)nc2c1 [BZ 11]
GI (growth inhibition percentage) (P. falciparum HB3 strain; at 10 μM, HB3 strain): 0.0%

IC50 (P. falciparum HB3 strain; [3]): 7.8 µM
Compound: Cc1ccc2[nH]c(NC(=O)c3ccc(-c4ccccc4)cn3)nc2c1 [BZ 7]
GI (growth inhibition percentage) (P. falciparum HB3 strain; at 10 μM, HB3 strain): 57.5%
CC50 (Vero cells): 19.5 µM

melting point: 245 °C
IC50 (P. falciparum HB3 strain; [4]): 2.4 µM
Compound: CCCCc1ccc(C(=O)Nc2nc3cc(C)ccc3[nH]2)nc1 [BZ 6, 5-Butyl-N-(5-methyl-1H-benzimidazol-2-yl)picolinamide]
inhibition at 10 µM (P. falciparum HB3 strain; [5]): 90.9%
SI (selectivity index) (P. falciparum HB3 strain): 2.7
CC50 [1]: 6.6 µM

IC50 (P. falciparum HB3 strain; [4]): 1.8 µM
IC50 ([2]; 7G8 strain (chloroquine-resistant), read-out: 7G8 Pf IC50): 3.6 µM
Compound: O=C(Nc1nc2cc(Cl)ccc2[nH]1)c1ccccn1 [BZ 12, N-(5-chloro-1H-benzimidazol-2-yl)picolinamide]
inhibition at 10 µM (P. falciparum HB3 strain; [5]): 91.4%
SI (selectivity index) (P. falciparum HB3 strain): 8.7
CC50 [1]: 15.4 µM
SI (selectivity index) ([2]; Vero CC50 versus 7G8 IC50): 4.2

Compound: O=C(Nc1nc2cc(Cl)ccc2[nH]1)c1ncccc1Cl [BZ 14]
GI (growth inhibition percentage) (P. falciparum HB3 strain; at 10 μM, HB3 strain): 11.9%

Compound: COc1ccc2nc(C(=O)Nc3nc4cc(Cl)ccc4[nH]3)ccc2c1 [BZ 24]
GI (growth inhibition percentage) (P. falciparum HB3 strain; at 10 μM, HB3 strain): 22.3%

Compound: O=C(Nc1nc2cc(Cl)ccc2[nH]1)c1cnc2ccccc2c1 [BZ 21]
GI (growth inhibition percentage) (P. falciparum HB3 strain; at 10 μM, HB3 strain): 0.0%

IC50 (P. falciparum HB3 strain; [3]): 14.1 µM
Compound: Cc1ccc2[nH]c(NC(=O)c3ccc4ccccc4n3)nc2c1 [BZ 9]
GI (growth inhibition percentage) (P. falciparum HB3 strain; at 10 μM, HB3 strain): 73.1%
CC50 (Vero cells): 63 µM

IC50 (P. falciparum HB3 strain; [3]): 7.3 µM
Compound: Cc1cc2nc(NC(=O)c3ccc(-c4ccccc4)cn3)[nH]c2cc1C [BZ 35]
GI (growth inhibition percentage) (P. falciparum HB3 strain; at 10 μM, HB3 strain): 64.7%
CC50 (Vero cells): 9.7 µM

melting point: 245 °C
IC50 (P. falciparum HB3 strain; [4]): 1.5 µM
Compound: COc1ccnc(C(=O)Nc2nc3cc(Cl)ccc3[nH]2)c1 [BZ 15, N-(5-Chloro-1H-benzimidazol-2-yl)-4-methoxypicolinamide]
inhibition at 10 µM (P. falciparum HB3 strain; [5]): 89.8%
SI (selectivity index) (P. falciparum HB3 strain): 1.4
CC50 [1]: 2 µM
